Laboratory results from patent US9284280B2, “Use of form-I crystal of 2-{4-[N-(5,6-diphenylpyrazin-2-yl)-N-isopropylamino]butyloxy}-N-(methylsulfonyl)acetamide” (NIPPON SHINYAKU CO., LTD., priority 2009, dated 2016).

Key:
PGI2 = PGI2 (Homo sapiens, UniProt P43119); details: background statement, see WO 2002/088084; cited from earlier work
[1] = Measurement of particle size distribution of the crystals (HORIBA LA-910) and observation with electron scanning microscope; format: physicochemical; details: for D10: Cumulative undersize particle diameter at 10% of volumetric ratio / D50: Cumulative undersize particle diameter at 50% of volumetric ratio / D90: Cumulative undersize particle diameter at 90% of volumetric ratio: crystals dispersed with ultrasonic wave in saturated solution of compound A in 0.1 v/v % Polysorbate 80 aqueous solution
Procedure: After a dispersant (10 mL) was added to the crystals of the invention (20 mg) followed by shaking up, the crystals of the invention were dispersed with ultrasonic wave. The particle size distributions of the crystals of the invention were measured by using HORIBA LA-910. The dispersant used is a filtered saturated solution of compound A in 0.1 v/v % Polysorbate 80 aqueous solution. D10: Cumulative undersize particle diameter at 10% of volumetric ratio [μm] D50: Cumulative undersize particle diameter at 50% of volumetric ratio [μm] D90: Cumulative undersize particle diameter at 90% of volumetric ratio [μm] (2) Observation of the Crystals of the Invention with Electron Scanning Microscope The crystals were observed through an electron scanning microscope (HITACHI HIGH TECHNOLOGIES TM-1000 Miniscope).

Sequence of PGI2 (P43119 whole entry): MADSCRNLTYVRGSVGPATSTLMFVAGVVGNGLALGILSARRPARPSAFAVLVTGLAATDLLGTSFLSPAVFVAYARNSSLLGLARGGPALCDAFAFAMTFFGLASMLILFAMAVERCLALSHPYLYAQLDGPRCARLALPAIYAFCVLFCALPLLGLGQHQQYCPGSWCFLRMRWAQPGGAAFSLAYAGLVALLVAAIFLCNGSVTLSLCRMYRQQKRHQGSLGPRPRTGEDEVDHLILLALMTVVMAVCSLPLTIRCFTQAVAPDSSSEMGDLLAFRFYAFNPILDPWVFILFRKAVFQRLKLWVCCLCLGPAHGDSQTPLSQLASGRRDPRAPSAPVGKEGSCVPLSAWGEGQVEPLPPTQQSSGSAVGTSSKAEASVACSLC

D10: Cumulative undersize particle diameter at 10% of volumetric ratio [1] [μm]	D50: Cumulative undersize particle diameter at 50% of volumetric ratio [1] [μm]	D90: Cumulative undersize particle diameter at 90% of volumetric ratio [1] [μm]	SMILES	PGI2 agonistic effect (PGI2)	particle size compared between crystal forms ([1]; conclusion from particle size distribution and electron scanning micrographs)
			CC(C)N(CCCCOCC(=O)NS(C)(=O)=O)c1cnc(-c2ccccc2)c(-c2ccccc2)n1 [Compound A, 2-{4-[N-(5,6-diphenylpyrazin-2-yl)-N-isopropylamino]butyloxy}-N-(methylsulfonyl)acetamide]	excellent PGI2 agonistic effect	
5.6	12.8	25.8	CC(C)N(CCCCOCC(=O)NS(C)(=O)=O)c1cnc(-c2ccccc2)c(-c2ccccc2)n1 [Form-I Crystal of the Invention, 2-{4-[N-(5,6-diphenylpyrazin-2-yl)-N-isopropylamino]butyloxy}-N-(methylsulfonyl)acetamide]		larger than those of Form-II and Form-III crystals
5.2	11.3	22.0	CC(C)N(CCCCOCC(=O)NS(C)(=O)=O)c1cnc(-c2ccccc2)c(-c2ccccc2)n1 [Form-II Crystal of the Invention, 2-{4-[N-(5,6-diphenylpyrazin-2-yl)-N-isopropylamino]butyloxy}-N-(methylsulfonyl)acetamide]		
4.3	8.0	14.4	CC(C)N(CCCCOCC(=O)NS(C)(=O)=O)c1cnc(-c2ccccc2)c(-c2ccccc2)n1 [Form-III Crystal of the Invention, 2-{4-[N-(5,6-diphenylpyrazin-2-yl)-N-isopropylamino]butyloxy}-N-(methylsulfonyl)acetamide]		
